System: human umbilical vein endothelial cells (HUVEC)
Assay: HUVEC proliferation assay
Type: cell-based
Conditions: Homo sapiens, HUVEC, Inhibition of HUVEC Proliferation; 50 nM; crude combinatorial urea library; read-out: Inhibition @ 50 nM
Experimental: HUVEC Proliferation Assay
This assay determines the ability of a test compound to inhibit the growth factor-stimulated proliferation of human umbilical vein endothelial cells (“HUVEC”). HUVEC cells (passage 3-4, Clonetics, Corp.) were thawed into EGM2 culture medium (Clonetics Corp) in T75 flasks. Fresh EGM2 medium was added to the flasks 24 hours later. Four or five days later, cells were exposed to another culture medium (F12K medium supplemented with 10% fetal bovine serum (FBS), 60 μg/ml endothelial cell growth supplement (ECGS), and 0.1 mg/ml heparin). Exponentially-growing HUVEC cells were used in experiments thereafter. Ten to twelve thousand HUVEC cells were plated in 96-well dishes in 100 μl of rich, culture medium (described above). The cells were allowed to attach for 24 hours in this medium. The medium was then removed by aspiration and 105 μl of starvation media (F12K+1% FBS) was added to each well. After 24 hours, 15 μl of test agent dissolved in 1% DMSO in starvation medium or this vehicle alone was added into each treatment well; the final DMSO concentration was 0.1%. One hour later, 30 μl of VEGF (30 ng/ml) in starvation media was added to all wells except those containing untreated controls; the final VEGF concentration was 6 ng/ml. Cellular proliferation was quantified 72 hours later by MTT dye reduction, at which time cells were exposed for 4 hours MTT (Promega Corp.). Dye reduction was stopped by addition of a stop solution (Promega Corp.) and absorbance at 595 λ was determined on a 96-well spectrophotometer plate reader.
IC50 values were calculated by curve-fitting the response of A^595 to various concentrations of the test agent; typically, seven concentrations separated by 0.5 log were employed, with triplicate wells at each concentration. For screening compound library plates, one or two concentrations (one well per concentration) were employed, and the % inhibition was calculated by the following formula:
% inhibition=(control−test) divided by (control−starvation) […]
control=A^595 when VEGF is present without test agent test=A^595 when VEGF is present with test agent starvation=A^595 when VEGF and test agent are both absent.

Point of comparison: `COc1cccc(C(=O)Nc2cc(-c3noc(-c4sc(NC(=O)N[C@@H](CO)C(N)=O)nc4N)n3)c(F)cc2F)c1`, inhibition at 0.05 µM 59%. Against it:
- COc1cccc(C(=O)Nc2cc(-c3noc(-c4sc(NC(=O)NCC(C)(C)N)nc4N)n3)c(F)cc2F)c1 — lower, 14%
- COc1cccc(C(=O)Nc2cc(-c3noc(-c4sc(NC(=O)NCC(=O)NO)nc4N)n3)c(F)cc2F)c1 — lower, -12%

Same assay, conditions: Homo sapiens, HUVEC, Table I screening results; 150 nM; crude combinatorial amide library

Point of comparison: `COc1cc(Nc2nc(N)c(-c3nc(-c4cccc(NC(=O)Cc5cccc(C)c5)c4)cs3)s2)cc(OC)c1OC`, inhibition at 0.15 µM 75%. Against it:
- COc1cc(Nc2nc(N)c(-c3nc(-c4cccc(NC(=O)c5ccc(C(=O)C(F)(F)F)cc5)c4)cs3)s2)cc(OC)c1OC — lower, 26%
- COc1cc(Nc2nc(N)c(-c3nc(-c4cccc(NC(=O)Cc5cccc6ccccc56)c4)cs3)s2)cc(OC)c1OC — lower, 6%
- COc1cc(Nc2nc(N)c(-c3nc(-c4cccc(NC(=O)c5cccc6ccccc56)c4)cs3)s2)cc(OC)c1OC — lower, 22%
- COc1cc(Nc2nc(N)c(-c3nc(-c4cccc(NC(=O)c5ccc(C)c(Br)c5)c4)cs3)s2)cc(OC)c1OC — higher, 86%
- COC(=O)c1cccc(C(=O)Nc2cccc(-c3csc(-c4sc(Nc5cc(OC)c(OC)c(OC)c5)nc4N)n3)c2)c1 — lower, 42%
- COc1cc(Nc2nc(N)c(-c3nc(-c4cccc(NC(=O)c5ccc(C(C)(C)C)cc5)c4)cs3)s2)cc(OC)c1OC — lower, 26%
- COc1cc(Nc2nc(N)c(-c3nc(-c4cccc(NC(=O)C5Cc6ccccc65)c4)cs3)s2)cc(OC)c1OC (centres unmarked) — lower, 56%
- COc1cc(Nc2nc(N)c(-c3nc(-c4cccc(NC(=O)c5cccs5)c4)cs3)s2)cc(OC)c1OC — lower, 29%
- COc1cc(Nc2nc(N)c(-c3nc(-c4cccc(NC(=O)/C=C/c5cccnc5)c4)cs3)s2)cc(OC)c1OC — lower, -13%
- COc1cc(Nc2nc(N)c(-c3nc(-c4cccc(NC(=O)c5c[nH]c6ccccc56)c4)cs3)s2)cc(OC)c1OC — lower, 20%
- COc1ccc2c(c1)C(CC(=O)Nc1cccc(-c3csc(-c4sc(Nc5cc(OC)c(OC)c(OC)c5)nc4N)n3)c1)CC2=O (centres unmarked) — lower, 0%

Same assay, conditions: Homo sapiens, HUVEC, Table II screening results; 1 nM; crude combinatorial amide library

Point of comparison: `CNC(=O)Nc1nc(N)c(-c2nc(-c3cccc(NC(=O)[C@@H](O)C(C)C)c3)cs2)s1`, inhibition at 0.001 µM 16%. Against it:
- C/C=C/C(=O)Nc1cccc(-c2csc(-c3sc(NC(=O)NC)nc3N)n2)c1 — lower, -1%
- CNC(=O)Nc1nc(N)c(-c2nc(-c3cccc(NC(=O)C(C)C)c3)cs2)s1 — lower, 10%

Same assay, conditions: Homo sapiens, HUVEC, Table II screening results; 10 nM; crude combinatorial amide library; read-out: % inhibition @ 10 nM

Point of comparison: `CNC(=O)Nc1nc(N)c(-c2nc(-c3cccc(NC(=O)[C@@H](O)C(C)C)c3)cs2)s1`, inhibition at 0.01 µM 4%. Against it:
- C/C=C/C(=O)Nc1cccc(-c2csc(-c3sc(NC(=O)NC)nc3N)n2)c1 — lower, -7%
- CNC(=O)Nc1nc(N)c(-c2nc(-c3cccc(NC(=O)C(C)C)c3)cs2)s1 — lower, -45%

Same assay, conditions: Homo sapiens, HUVEC, table following Table II (untitled); 1 nM; crude combinatorial library

Point of comparison: `CCO/C(C)=C/C(=O)Nc1ccc(C)c(-c2noc(-c3sc(Nc4cc(OC)c(OC)c(OC)c4)nc3N)n2)c1`, inhibition at 0.001 µM 21%. Against it:
- COc1cc(Nc2nc(N)c(-c3nc(-c4cc(NC(=O)[C@@]56C[C@@H]7C[C@@H]5CC7(C)C6)ccc4C)no3)s2)cc(OC)c1OC — lower, 1%
- COc1cccc(CC(=O)Nc2ccc(C)c(-c3noc(-c4sc(Nc5cc(OC)c(OC)c(OC)c5)nc4N)n3)c2)c1 — lower, 12%
- COc1cc(Nc2nc(N)c(-c3nc(-c4cc(NC(=O)C5CCC6CCC(O)CC5C6)ccc4C)no3)s2)cc(OC)c1OC (centres unmarked) — lower, 10%
- COc1cc(Nc2nc(N)c(-c3nc(-c4cc(NC(=O)C(=O)CC(C)C)ccc4C)no3)s2)cc(OC)c1OC — lower, 7%
- COc1cc(Nc2nc(N)c(-c3nc(-c4cc(NC(=O)C5CC[C@H]6C=C[C@@H]5C6)ccc4C)no3)s2)cc(OC)c1OC (some centres unmarked) — lower, -2%
- COc1cc(Nc2nc(N)c(-c3nc(-c4cc(NC(=O)c5cccc6[nH]ccc56)ccc4C)no3)s2)cc(OC)c1OC — lower, 13%
- COc1cc(Nc2nc(N)c(-c3nc(-c4cc(NC(=O)[C@H]5C[C@@H](C)[C@@H](C)[C@H]5C)ccc4C)no3)s2)cc(OC)c1OC — lower, -21%

Same assay, conditions: Homo sapiens, HUVEC, table following Table II (untitled); 10 nM; crude combinatorial library; read-out: % inhibition @ 10 nM

Point of comparison: `COc1cc(Nc2nc(N)c(-c3nc(-c4cc(NC(=O)C5CCC6CCC(O)CC5C6)ccc4C)no3)s2)cc(OC)c1OC` (centres unmarked), inhibition at 0.01 µM 11%. Against it:
- COc1cc(Nc2nc(N)c(-c3nc(-c4cc(NC(=O)[C@@]56C[C@@H]7C[C@@H]5CC7(C)C6)ccc4C)no3)s2)cc(OC)c1OC — higher, 23%
- CCO/C(C)=C/C(=O)Nc1ccc(C)c(-c2noc(-c3sc(Nc4cc(OC)c(OC)c(OC)c4)nc3N)n2)c1 — higher, 78%
- COc1cccc(CC(=O)Nc2ccc(C)c(-c3noc(-c4sc(Nc5cc(OC)c(OC)c(OC)c5)nc4N)n3)c2)c1 — higher, 35%
- COc1cc(Nc2nc(N)c(-c3nc(-c4cc(NC(=O)C(=O)CC(C)C)ccc4C)no3)s2)cc(OC)c1OC — higher, 18%
- COc1cc(Nc2nc(N)c(-c3nc(-c4cc(NC(=O)C5CC[C@H]6C=C[C@@H]5C6)ccc4C)no3)s2)cc(OC)c1OC (some centres unmarked) — higher, 33%
- COc1cc(Nc2nc(N)c(-c3nc(-c4cc(NC(=O)c5cccc6[nH]ccc56)ccc4C)no3)s2)cc(OC)c1OC — higher, 72%
- COc1cc(Nc2nc(N)c(-c3nc(-c4cc(NC(=O)[C@H]5C[C@@H](C)[C@@H](C)[C@H]5C)ccc4C)no3)s2)cc(OC)c1OC — lower, 5%

Same assay, conditions: Table I screening results; 150 nM; crude combinatorial amide library

In the case of `COc1cc(Nc2nc(N)c(-c3nc(-c4cccc(NC(=O)C(C5CCCCC5)C5CCCCC5)c4)cs3)s2)cc(OC)c1OC`, the “% inhibition @ 150 nM” value is reported as 0%.
